The results in this text go back to PubChem BioAssay (NCI).

Molecules are shown by their SMILES.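 Exposure lasted 48 hours, with cells grown in 96-well plates and compounds tested at five concentrations. TGI is the concentration that stops growth completely.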

What all share (assay): DTP human tumour cell line panel, 48 h
Test [1] concerns SK-MEL-5 melanoma.
Test [2] concerns SNB-75 CNS.
Test [3] relates to A549 NSCLC.
For test [4], the system named is NCI-H460 lung.
The subject of test [5] is IGROV1 ovarian.
The subject of test [6] is NCI-H23 lung.
The test system of test [7] is CCRF-CEM leukemia.
The subject of test [8] is SW-620 colon.
The subject of test [9] is MALME-3M melanoma.
Test [10] relates to HCC-2998 colon.
Test [11] deals with HL-60(TB) leukemia.
Test [12] deals with SF-268 CNS.
Test [13] deals with UACC-257 melanoma.
For test [14], the system named is MDA-MB-231 breast.
For test [15], the system named is RPMI-8226 leukemia.
In test [16] the test system is 786-0 renal.
Test [17] has as its system HOP-62 NSCLC.

One may read the TGI as the concentration giving total growth inhibition. Read a high TGI as lower sensitivity of the cells. Take `CCOC(=O)n1ccc2c(C(=O)OC)c(C(=O)OC)cc(/C(=C/C(=O)OC)C(=O)OC)c21`: the concentration for total growth inhibition (TGI) in test [1], in test [2], in [3], in [4], in test [5] and in [6] was more than 100 µM in each case. The TGI in [7], in [8], in test [9], in test [10], in [11] and in [12] was more than 100 µM throughout. Besides, the TGI in [13], in test [14], in [15], in [16] and in [17] was more than 100 µM in each case.
Take `O=C(O)c1ccc(C2=Nc3cccc4cccc(c34)N2)cc1`: the TGI in test [1], in test [2], in test [3], in test [4], in test [5] and in [6] was more than 100 µM throughout. Moreover, the TGI in test [7], in test [8], in test [9], in test [10], in [11] and in test [12] was more than 100 µM in each case. Also, the TGI in [13], in [14], in test [15], in test [16] and in test [17] was more than 100 µM each time.
As to `O=C1CCCc2cc3c(cc21)CC1(C3)Cc2cc3c(cc2C1)C(=O)CCC3`, the TGI was 7.09 µM in test [1]; more than 100 µM in test [2]; 53.8 µM in test [3]; more than 44.2 µM in test [4]; 84.6 µM in [5]; 31.7 µM in test [6]. Moreover, the TGI in test [7] was more than 34.2 µM; in test [8], more than 100 µM; in [9], more than 62.6 µM; in test [10], 10.4 µM; in test [11] it was 4.6 µM; in test [12] it was more than 100 µM. Besides, the TGI in test [13] was 31.2 µM; in test [14], 21.6 µM; in [15] it was 15.6 µM; in test [16] it was 64.8 µM; in [17], more than 63.2 µM.
As to `CCOC(=O)/C=C(/C(=O)OCC)n1cc(C)c(=O)[nH]c1=O`, the TGI in [1] is 21.1 µM; in [2], 23.7 µM; in test [3], 31.5 µM; in test [4], 29.4 µM; in [5], 12.9 µM; in test [6], 18.3 µM. Besides, the total growth inhibition concentration (TGI) worked out at 4.61 µM in [7]; 4.84 µM in [8]; 4.48 µM in test [9]; 17.5 µM in [10]; 3.91 µM in test [11]; 24.6 µM in test [12]. The TGI came out at 26 µM in [13]; 18.4 µM in test [14]; 5.68 µM in [15]; 8.28 µM in [16]; 33.2 µM in [17].
For `O=S(=O)(N1CCCCN(S(=O)(=O)C(F)(F)F)CCCN(S(=O)(=O)C(F)(F)F)CCCCN(S(=O)(=O)C(F)(F)F)CCCN(S(=O)(=O)C(F)(F)F)CCCCN(S(=O)(=O)C(F)(F)F)CCCN(S(=O)(=O)C(F)(F)F)CCCCN(S(=O)(=O)C(F)(F)F)CCC1)C(F)(F)F`, the TGI in [1], in test [2], in test [3], in test [4], in [5] and in [6] was more than 31.6 µM each time. The TGI in test [7], in [8], in [9], in test [10], in test [11] and in test [12] was more than 31.6 µM in each case. Besides, the TGI was more than 31.6 µM in test [13]; more than 31.6 µM in [14]; more than 100 µM in [15]; more than 100 µM in [16]; more than 31.6 µM in [17].
In the case of `COc1ccc(N2C(=O)C3c4[nH]c5ccc(OC)cc5c4C4CCC(c5ccccc5)CC4C3C2=O)cc1` (stereo not given), the TGI is more than 100 µM in test [1]; 16.7 µM in test [2]; 40.3 µM in [3]; 21.7 µM in [4]; 62.2 µM in test [5]; 46.6 µM in test [6]. Also, the TGI in test [7] was 10.3 µM; in test [8] it was 25.1 µM; in [9] it was 30.3 µM; in test [10] it was 49.5 µM; in [11], 66 µM; in test [12] it was more than 46.6 µM. Besides, the TGI in test [13] is more than 88.9 µM; in test [14], 25 µM; in test [15], 39.7 µM; in test [16] it was 12.2 µM; in test [17], 20.8 µM.
As for `Oc1c(O)c(Cc2ccccc2)c(Cc2ccccc2)c(Cc2ccccc2)c1Cc1ccccc1`, the TGI in [1], in test [2], in [3], in [4], in test [5] and in test [6] was more than 10 µM in each case. For the same compound, the TGI in [7], in test [8], in [9], in [10], in test [11] and in test [12] was more than 10 µM in each case. Further, the TGI in test [13], in test [14], in test [15], in test [16] and in test [17] was more than 10 µM throughout.
`N#CCc1nc(-c2cc3ccc(O)cc3oc2=O)cs1`: the TGI in test [1], in test [2], in test [3], in [4], in [5] and in test [7] was more than 100 µM throughout. The TGI in test [8], in test [9], in test [10], in [11], in test [12] and in test [13] was more than 100 µM throughout. The TGI in test [14] is more than 100 µM; in test [15], 81.2 µM; in test [16], more than 100 µM; in test [17], more than 100 µM.
